Assay results reported in patent US5274141A, “Designed quinone- and hydroquinone-containing cyclic enediyneols and enediyneones having DNA cleaving and cytotoxic properties” (The Scripps Research Institute, priority 1992, dated 1993).
Read-outs that look alike come from different tables or passages of the source.

Assays:
[1] = test system: H-322 (Lung Carcinoma); experiment: Sulforhodamine B cytotoxicity assay, H-322; type: cell-based; conditions: Homo sapiens, NCI-H322, 72 hours
From the text: (§1) In addition to the DNA cleavage screening already discussed, several of the before-described compounds were screened against a panel of twelve cancerous cell lines as target cells and four "normal" cell preparations. This screening utilized a sulforhodamine B cytotoxicity assay as discussed below.
(§2) SULFORHODAMINE B CYTOTOXICITY ASSAY
(§3) 1. Preparation of target cells in 96-well plates
(§4) 2. Preparation of sample drugs and toxic control
(§5) 3. Addition of Sample Drugs, Compounds and Controls to 96-well Plates
(§6) f. Incubate (37° C., 5-10 percent CO2 in humidified incubator) plates for a total of 72 hours. Check plates at 24 hour intervals microscopically for signs of cytotoxicity.
(§7) IC50 values; i.e., the concentration of Compound required to kill one-half of the treated cells, where then calculated.
(§8) The cell lines assayed are listed below along with their respective sources: […]

[2] = test system: P-388 (Mouse Leukemia); experiment: Sulforhodamine B cytotoxicity assay, P-388; type: cell-based; conditions: P388, 72 hours
From the text: as §1, §2, §3, §4, §5, §6, §7, §8

[3] = test system: Ovcar-3 (Ovarian Carcinoma); experiment: Sulforhodamine B cytotoxicity assay, Ovcar-3; type: cell-based; conditions: Homo sapiens, 72 hours
From the text: as §1, §2, §3, §4, §5, §6, §7, §8

[4] = test system: φX174 form I DNA; experiment: Cleavage of cell-free supercoiled DNA, agarose gel electrophoresis; type: biochemical; conditions: pH 7.4, 37° C., 15 hours
Experimental: FIG. 1 is a photograph of an ethidium bromide stained 1 percent agarose electrophoresis gel o that illustrates the cleavage of .phi.X174 form I DNA (100 μM base pairs) by Compounds 7, 8, 9, 10 and 12 at 50-5000 μM after 15 hours at 37° C. at a pH value of 7.4 in 50 […]. […] Lanes 2-10 correspond to the following: Lane 2: Compound 12 (100 μM); Lane 3: Compound 10 (100 μM); Lane 4: Compound 7 (100 μM); Lane 5: Compound 8 (100 μM); Lanes 6-10: Compound 9 (50, 100, 500, 1000 and 5000 μM). Forms I, II and III shown to the left of the photograph show the relative migrations of supercoiled (form I) relaxed (form II) and linear (form III) DNA, respectively.
To a vial containing 9 microliters of a cell-free .phi.X174 Type I double-stranded DNA in pH 7.4 […] Tris-HCl buffer was added 1 microliter of a 1.0 millimolar or other appropriate ethanol solution of Compounds 7, 8, 9, 10 and 12.
The vials were then placed in a 37° C. oven for 15 hours. A 2.0 microliter portion of glycerol loading buffer solution containing bromothymol blue indicator was added to each vial. A 10 microliter aliquot was then drawn from each. Gel electrophoresis analysis of the aliquots was performed using a 1.0 percent agarose gel with ethidium bromide run at 115 volts for one hour. DNA cleavage was indicated by the formation of Type II DNA, which was detected by visual inspection of the gel under 310 nanometer ultraviolet light.

[5] = test system: Capan-1 (Pancreatic Carcinoma); experiment: Sulforhodamine B cytotoxicity assay, Capan-1; type: cell-based; conditions: Homo sapiens, 72 hours
From the text: as §1, §2, §3, §4, §5, §6, §7, §8

[6] = test system: Chinese Hamster Ovary (CHO); experiment: Sulforhodamine B cytotoxicity assay, CHO; type: cell-based; conditions: Cricetulus griseus, normal, 72 hours
From the text: as §1, §2, §3, §4, §5, §6, §7, §8

[7] = test system: Human Mammary Epithelial Cells (HMEC); experiment: Sulforhodamine B cytotoxicity assay, HMEC; type: cell-based; conditions: normal, 72 hours
From the text: as §1, §2, §3, §4, §5, §6, §7, §8

[8] = test system: Normal Human Epidermal Keratinocytes (NHEK); experiment: Sulforhodamine B cytotoxicity assay, NHEK; type: cell-based; conditions: 72 hours
From the text: as §1, §2, §3, §4, §5, §6, §7, §8

[9] = Cycloaromatization studies using 1,4-cyclohexadiene in toluene; type: physicochemical
From the text: These reactions provided Compounds 11-13 as shown schematically in Scheme 2, below. [drawing 9]

[10] = test system: Molt-4 (T-Cell Leukemia); experiment: Sulforhodamine B cytotoxicity assay, Molt-4; type: cell-based; conditions: Homo sapiens
From the text: as §1, §2, §3, §4, §5, §6, §7, §8

[11] = test system: HL-60 (Promyeocytic Leukemia); experiment: Sulforhodamine B cytotoxicity assay, HL-60; type: cell-based; conditions: Homo sapiens, 72 hours
From the text: as §1, §2, §3, §4, §5, §6, §7, §8

[12] = Stability observed during synthesis; type: physicochemical
Experimental: Finally, PCC oxidation (4.0 equivalents PCC, 4Å molecular sieves in CH2 Cl2 at 25° C. for 0.5 hour) of Compound 8 afforded the tricarbonyl Compound 10 in 49 percent yield as step i.

[13] = test system: Normal Human Dermal Fibroblast (NHDF); experiment: Sulforhodamine B cytotoxicity assay, NHDF; type: cell-based; conditions: for toxicity to NHDF cells compared: compared with well known anticancer drugs
From the text: as §1, §2, §3, §4, §5, §6, §7
(§9) The cell lines assayed are listed below along with their respective sources:
(§10) Separate control studies were also carried out using the following well known anticancer drugs with the following IC50 values for NHDF and cancer cells.

[14] = test system: MCF-7 (Breast Carcinoma); experiment: Sulforhodamine B cytotoxicity assay, MCF-7; type: cell-based; conditions: Homo sapiens, MCF7, 72 hours
From the text: as §1, §2, §3, §4, §5, §6, §7, §8

[15] = test system: HT-29 (Colon Carcinoma); experiment: Sulforhodamine B cytotoxicity assay, HT-29; type: cell-based; conditions: Homo sapiens, 72 hours
From the text: as §1, §2, §3, §4, §5, §6, §7, §8

[16] = test system: UCLA P-3 (Lung Carcinoma); experiment: Sulforhodamine B cytotoxicity assay, UCLA P-3; type: cell-based; conditions: Homo sapiens, 72 hours
From the text: as §1, §2, §3, §4, §5, §6, §7, §8

[17] = test system: SK-Mel-28 (Melanoma); experiment: Sulforhodamine B cytotoxicity assay, SK-Mel-28; type: cell-based; conditions: Homo sapiens, 72 hours
From the text: as §1, §2, §3, §4, §5, §6, §7, §8

[18] = test system: Cancer Cells; experiment: cells; type: cell-based, human or mouse
From the text: as §1, §2, §3, §4, §5, §6, §7, §9, §10

[19] = test system: SIHA (Cervical Carcinoma); experiment: Sulforhodamine B cytotoxicity assay, SIHA; type: cell-based; conditions: Homo sapiens, 72 hours
From the text: as §1, §2, §3, §4, §5, §6, §7, §8

[20] = test system: 786-0 (Renal Carcinoma); experiment: Sulforhodamine B cytotoxicity assay, 786-0; type: cell-based; conditions: Homo sapiens, 72 hours
From the text: as §1, §2, §3, §4, §5, §6, §7, §8

[21] = 55° C., 1,4-cyclohexadiene in toluene
[22] = MOLT-4, 72 hours, read-out: IC50 Values
[23] = Molt-4 leukemia cells, read-out: IC50
[24] = Homo sapiens, normal, 72 hours, read-out: IC50 Values
[25] = control anticancer drugs, read-out: Range of Average IC50 Values, NHDF
[26] = 110° C., 1,4-cyclohexadiene in toluene
[27] = Homo sapiens, control anticancer drugs, read-out: Range of Average IC50 Values, NHDF

Row | Molecule | IC50 [1] [µM] | IC50 [3] [µM] | DNA cleaving activity [4] | IC50 [5] [µM] | IC50 [6] [µM] | IC50 [7] [µM] | IC50 [8] [µM] | IC50 [10, 22] [µM] | IC50 [11] [µM] | IC50 [13, 24] [µM] | IC50 [14] [µM] | IC50 [15] [µM] | IC50 [16] [µM] | IC50 [17] [µM] | further results
1 | CC1=C(C)C(=O)C2=C(C#CCCCC(O)C#C2)C1=O (centres unmarked) [Compound 8] | 13 | 6.3 | significant DNA damaging properties | 3.1 | 3.2 | 3.1 | 3.1 | 0.1 | 7.8 | 3.1 | 6.3 | 6.3 | 6.3 | 6.3 | IC50 [2]: 2 µM; half life (t1/2) of cycloaromatization [9, 21]: 2.6 h; IC50 [10, 23]: 0.5 µM; thermal stability [12]: thermally labile; toxicity to NHDF cells compared [13]: similarly toxic to the normal NHDF and cancer cells except Molt-4 cells
2 | N.N.[Cl][Pt][Cl] [Cis-Platin, reference compound] | – | – | – | – | – | – | – | – | – | – | – | – | – | – | IC50 [13, 25]: 50 µM
3 | COC1=C(C(=O)O)[C@H](C)[C@@]23O[C@]24c2cc(O)c5c(c2N[C@H]3C#C/C=C\C#C[C@H]14)C(=O)c1c(O)ccc(O)c1C5=O [Dynemicin A, reference compound] | – | – | – | – | – | – | – | – | – | – | – | – | – | – | IC50 [13, 25]: 0.01 µM
4 | N[C@@H](Cc1ccc(N(CCCl)CCCl)cc1)C(=O)O [Melphelan, reference compound] | – | – | – | – | – | – | – | – | – | – | – | – | – | – | IC50 ([13]; Homo sapiens, read-out: Range of Average IC50 Values, NHDF): 100 µM
5 | COc1cccc2c1C(=O)c1c(O)c3c(c(O)c1C2=O)C[C@@](O)(C(=O)CO)C[C@@H]3O[C@H]1C[C@H](N)[C@H](O)[C@H](C)O1 [Doxorubicin, reference compound] | – | – | – | – | – | – | – | – | – | – | – | – | – | – | IC50 ([18]; control anticancer drugs, cancer cells, read-out: Range of Average IC50 Values, Cancer Cells): 0.00016 to 0.098 µM
6 | Cc1c(C)c(O)c2c(c1O)C#CCCCC(O)C#C2 (centres unmarked) [Compound 9] | 25 | 25 | significant DNA damaging properties | 13 | 13 | 25 | 13 | 50 | 1.6 | 25 | 25 | 25 | 25 | 25 | IC50 [2]: 3.1 µM; cycloaromatization behaviour [9, 26]: complicated kinetics due to ease of conversion to Compound 8 even under oxygen extrusion conditions, but seems quite stable prior to oxidation; air sensitivity [12]: air-sensitive; stability ([12]; neutral conditions): relatively stable
7 | CC(=O)O[C@H]1C(=O)[C@@]2(C)[C@H]([C@H](OC(=O)c3ccccc3)[C@]3(O)C[C@H](OC(=O)[C@H](O)[C@@H](NC(=O)c4ccccc4)c4ccccc4)C(C)=C1C3(C)C)[C@]1(OC(C)=O)CO[C@@H]1C[C@@H]2O [Taxol, reference compound] | – | – | – | – | – | – | – | – | – | – | – | – | – | – | IC50 [13, 27]: 0.01 µM
8 | CC1=C(C)C(=O)c2cc3c(cc2C1=O)CCCC3O (centres unmarked) [Compound 12] | – | – | minor activity | – | – | – | – | – | – | – | – | – | – | – | –
9 | Calicheamicin [reference compound] | – | – | – | – | – | – | – | – | – | – | – | – | – | – | IC50 [13, 25]: 0.0025 µM
10 | CN(Cc1cnc2nc(N)nc(N)c2n1)c1ccc(C(=O)N[C@@H](CCC(=O)O)C(=O)O)cc1 [Methotrexate, reference compound] | – | – | – | – | – | – | – | – | – | – | – | – | – | – | IC50 [13, 27]: 50 µM
11 | Cc1c(C)c(OC(=O)C(C)(C)C)c2c(c1OC(=O)C(C)(C)C)C#CCCCC(O)C#C2 (centres unmarked) [Compound 7] | 100 | 13 | no DNA cleaving activity | 13 | 100 | 100 | 25 | 100 | 100 | 100 | 50 | 13 | 13 | 100 | IC50 [2]: 13 µM; half life (t1/2) of cycloaromatization [9, 26]: 74 h; stability ([12]; ambient temperature): quite stable
12 | CC1=C(C)C(=O)C2=C(C#CCCCC(=O)C#C2)C1=O [Compound 10] | 100 | 25 | significant DNA damaging properties | 100 | 100 | 100 | 100 | 1.19 | 25 | 100 | 13 | 50 | 50 | 100 | IC50 [19]: 13 µM; IC50 [20]: 50 µM; potency in cytotoxicity studies ([18]; variety of cell lines, in words): most impressive results; half life (t1/2) of cycloaromatization [9, 21]: 0.533 h; reactivity in cycloaromatization studies ([9]; series 7-10): most reactive member of the series 7-10; IC50 [10, 23]: 1 µM; toxicity to NHDF cells compared [13]: less toxic than those well known anticancer drugs against the NHDF cells
